Test results taken from BindingDB's records for doi:10.1016/j.bmcl.2004.08.009 (Deltagen Research Laboratories, 2004).

What was measured:
[1] = target: C-C chemokine receptor type 2 (Homo sapiens, UniProt P41597); assay: Inhibition of MCP-1 induced chemotaxis in THP-1 cells
[2] = Inhibition of MCP-1 induced chemotaxis in THP-1 cells

Chain of C-C chemokine receptor type 2 (P41597 whole entry): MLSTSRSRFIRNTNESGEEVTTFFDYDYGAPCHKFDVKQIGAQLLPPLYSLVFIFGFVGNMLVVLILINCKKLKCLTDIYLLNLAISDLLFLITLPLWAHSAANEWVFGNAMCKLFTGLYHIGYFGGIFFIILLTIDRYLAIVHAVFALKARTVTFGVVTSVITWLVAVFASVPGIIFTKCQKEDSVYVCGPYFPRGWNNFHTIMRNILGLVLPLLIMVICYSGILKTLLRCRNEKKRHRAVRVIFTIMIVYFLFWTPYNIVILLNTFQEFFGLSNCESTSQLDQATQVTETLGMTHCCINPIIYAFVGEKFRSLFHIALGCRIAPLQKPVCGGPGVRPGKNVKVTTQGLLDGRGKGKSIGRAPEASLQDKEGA

Structure (SMILES)	EC50 [1] [nM]	EC50 [2] [nM]
O=C(CNC(=O)c1cccc(C(F)(F)F)c1)NC[C@H]1CCCN1Cc1ccc(Cl)cc1	810	
O=C(CNC(=O)c1cccc(C(F)(F)F)c1)N[C@H]1CCN(Cc2ccc(Cl)cc2)C1		360
O=C(CNC(=O)c1cccc(C(F)(F)F)c1)N[C@@H]1CCN(Cc2ccc(Cl)cc2)C1 [(R)-N-(2-(1-(4-chlorobenzyl)pyrrolidin-3-ylamino)-2-oxoethyl)-3-(trifluoromethyl)benzamide]		20
O=C(CNC(=O)c1cccc(C(F)(F)F)c1)NCC1CCN(Cc2ccc(Cl)cc2)CC1 [N-({[1-(4-Chloro-benzyl)-piperidin-4-ylmethyl]-carbamoyl}-methyl)-3-trifluoromethyl-benzamide]		40
O=C(CNC(=O)c1cccc(C(F)(F)F)c1)NC1CCCN(Cc2ccc(Cl)cc2)C1 (stereo not given) [N-{[1-(4-Chloro-benzyl)-piperidin-3-ylcarbamoyl]-methyl}-3-trifluoromethyl-benzamide]		610
